Reference: PubChem BioAssay (NCI)
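Test compounds were applied to cells in 96-well plates for 48 hours at 5 doses. GI50 marks 50% less growth. TGI denotes the concentration required for complete inhibition of growth.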

Tests used:
Test in all cases: DTP human tumour cell line panel, 48 h; in the data active = GI50 below about 0.43 µM; inactive = the rest
[1] = test system: ACHN renal
[2] = test system: SF-268 CNS
[3] = test system: SW-620 colon
[4] = test system: SF-539 CNS
[5] = test system: MCF7 breast
[6] = test system: CCRF-CEM leukemia
[7] = test system: PC-3 prostate
[8] = test system: NCI-H460 lung
[9] = test system: M14 melanoma
[10] = test system: KM12 colon
[11] = test system: IGROV1 ovarian
[12] = test system: OVCAR-8 ovarian
[13] = test system: SK-MEL-5 melanoma
[14] = test system: OVCAR-3 ovarian
[15] = test system: SNB-19 CNS
[16] = test system: HS 578T breast
[17] = test system: UACC-62 melanoma
[18] = test system: MOLT-4 leukemia
[19] = test system: NCI-H522 lung
[20] = test system: MALME-3M melanoma
[21] = test system: COLO 205 colon
[22] = test system: SNB-75 CNS
[23] = test system: EKVX NSCLC
[24] = test system: RXF 393 renal
[25] = test system: UACC-257 melanoma
[26] = test system: U251 CNS
[27] = test system: NCI-H226 lung
[28] = test system: HT29 colon
[29] = test system: SN12C renal
[30] = test system: HOP-62 NSCLC
[31] = test system: MDA-MB-435
[32] = test system: OVCAR-5 ovarian
[33] = test system: HCC-2998 colon
[34] = test system: T-47D breast
[35] = test system: HCT-116 colon
[36] = test system: SF-295 CNS
[37] = test system: BT-549 breast
[38] = test system: DU-145 prostate
[39] = test system: SK-MEL-2 melanoma
[40] = test system: OVCAR-4 ovarian
[41] = test system: LOX IMVI melanoma
[42] = test system: UO-31 renal
[43] = test system: HCT-15 colon
[44] = test system: RPMI-8226 leukemia
[45] = test system: 786-0 renal
[46] = test system: A549 NSCLC
[47] = test system: SR leukemia
[48] = test system: TK-10 renal
[49] = test system: MDA-MB-231 breast
[50] = test system: SK-OV-3 ovarian
[51] = test system: CAKI-1 renal
[52] = test system: SK-MEL-28 melanoma

CCCC(=O)O[C@]1(C)CC[C@@H]2[C@H]3[C@@H]1[C@@H]1C/C(C)=C\CC[C@](C)(OC(=O)[C@@H]2C)[C@H]3O1
26.9 µM: TGI [47]
37.6 µM: TGI [44]
26 µM: TGI [6]
94.4 µM: TGI [49]
65.6 µM: TGI [42]
41.3 µM: TGI [7]
38.2 µM: TGI [35]
33.1 µM: TGI [13]
30.5 µM: TGI [18]
> 100 µM: TGI [1] | TGI [2] | TGI [3] | TGI [4] | TGI [5] | TGI [9] | TGI [10] | TGI [11] | TGI [12] | TGI [14] | TGI [15] | TGI [16] | TGI [17] | TGI [20] | TGI [21] | TGI [22] | TGI [23] | TGI [24] | TGI [25] | TGI [26] | TGI [27] | TGI [28] | TGI [29] | TGI [30] | TGI [31] | TGI [32] | TGI [34] | TGI [36] | TGI [37] | TGI [38] | TGI [39] | TGI [40] | TGI [43] | TGI [45] | TGI [46] | TGI [48] | TGI [50] | TGI [51] | TGI [52]
59.9 µM: TGI [41]
75.5 µM: TGI [19]
69.8 µM: TGI [8]
inactive: GI50 [1] 36.2 µM | GI50 [2] 47.8 µM | GI50 [3] 40.6 µM | GI50 [4] > 100 µM | GI50 [5] 29.1 µM | GI50 [6] 8.89 µM | GI50 [7] 16.2 µM | GI50 [8] 22.5 µM | GI50 [9] 32.5 µM | GI50 [10] 32.8 µM | GI50 [11] 24.3 µM | GI50 [12] 47.6 µM | GI50 [13] 13.4 µM | GI50 [14] 30.3 µM | GI50 [15] > 100 µM | GI50 [16] 40 µM | GI50 [17] 24.4 µM | GI50 [18] 14.7 µM | GI50 [19] 19.6 µM | GI50 [20] 61.1 µM | GI50 [21] 43.2 µM | GI50 [22] > 100 µM | GI50 [23] 68.3 µM | GI50 [24] > 100 µM | GI50 [25] 43.3 µM | GI50 [26] 41.8 µM | GI50 [27] 41.3 µM | GI50 [28] 32.1 µM | GI50 [29] 47.9 µM | GI50 [30] 60.3 µM | GI50 [31] 32.6 µM | GI50 [32] 38.2 µM | GI50 [33] 21.7 µM | GI50 [34] > 100 µM | GI50 [35] 18.8 µM | GI50 [36] 41.2 µM | GI50 [37] 61.9 µM | GI50 [38] 74.5 µM | GI50 [39] 49.5 µM | GI50 [40] 52.9 µM | GI50 [41] 24.6 µM | GI50 [42] 23.6 µM | GI50 [43] 44.4 µM | GI50 [44] 15.9 µM | GI50 [45] 72.6 µM | GI50 [46] 40.1 µM | GI50 [47] 13.2 µM | GI50 [48] 86.9 µM | GI50 [49] 25.5 µM | GI50 [50] > 100 µM | GI50 [51] 31.7 µM | GI50 [52] 78.5 µM
82.9 µM: TGI [33]
